The source of these data is US20250163054A1, “SUBSTITUTED BICYCLIC HETEROARYL COMPOUNDS USEFUL AS INHIBITORS OF TLR9” (Bristol-Myers Squibb Company, priority 2022, published 2025).

Holding throughout (format): cell-based
One test concerns the target T1, human TLR9 (Homo sapiens, UniProt Q9NR96).
T1 construct: host or cells: HEK-Blue cells (HEK293-derived reporter line)
T1 sequence (Q9NR96 26-1032): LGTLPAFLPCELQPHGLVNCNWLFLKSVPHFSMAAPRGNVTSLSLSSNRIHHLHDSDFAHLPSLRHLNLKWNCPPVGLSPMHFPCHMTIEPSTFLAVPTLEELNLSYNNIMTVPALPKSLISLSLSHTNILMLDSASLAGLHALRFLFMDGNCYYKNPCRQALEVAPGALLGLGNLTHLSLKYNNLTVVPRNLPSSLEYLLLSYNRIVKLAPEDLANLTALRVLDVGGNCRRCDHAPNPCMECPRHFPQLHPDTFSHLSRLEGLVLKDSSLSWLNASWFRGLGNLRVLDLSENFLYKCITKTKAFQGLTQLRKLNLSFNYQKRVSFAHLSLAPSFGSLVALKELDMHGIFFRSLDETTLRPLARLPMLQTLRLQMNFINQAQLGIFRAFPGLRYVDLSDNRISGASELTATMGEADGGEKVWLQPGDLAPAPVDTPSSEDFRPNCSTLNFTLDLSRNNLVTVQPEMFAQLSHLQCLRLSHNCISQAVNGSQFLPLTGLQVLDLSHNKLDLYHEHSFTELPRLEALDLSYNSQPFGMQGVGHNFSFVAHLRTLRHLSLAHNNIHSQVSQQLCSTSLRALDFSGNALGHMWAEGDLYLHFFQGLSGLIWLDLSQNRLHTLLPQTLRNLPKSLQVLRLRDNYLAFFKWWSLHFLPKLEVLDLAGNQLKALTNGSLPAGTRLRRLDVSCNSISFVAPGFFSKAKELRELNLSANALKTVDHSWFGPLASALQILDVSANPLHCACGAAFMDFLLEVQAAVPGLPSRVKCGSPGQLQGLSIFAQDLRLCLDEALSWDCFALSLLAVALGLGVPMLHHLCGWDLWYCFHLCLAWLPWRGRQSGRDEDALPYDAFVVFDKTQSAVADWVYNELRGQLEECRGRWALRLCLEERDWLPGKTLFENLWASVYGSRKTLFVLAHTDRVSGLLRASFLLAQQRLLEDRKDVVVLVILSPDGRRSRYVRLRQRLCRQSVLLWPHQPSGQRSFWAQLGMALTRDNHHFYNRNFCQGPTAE
Kind of test: TLR7/8/9 Inhibition Reporter Assays (TLR9). To be noted: HEK-Blue cells overexpressing human TLR9, SEAP reporter, stimulated with TLR9 ligand ODN2006. In a few lines: (§1)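 HEK-Blue cells overexpressing human TLR7, TLR8 or TLR9 with NF-κB/AP-1-driven SEAP reporter, pre-treated 60 min with compound ([…]). Stimulated with […] (TLR7), […] (TLR8) or ODN2006 200 nM (TLR9), then 22 h at 37° C; SEAP measured, % inhibition relative to agonist-plus-DMSO and known-inhibitor wells.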
(In general: Reporter assays use an easily measured gene product as a stand-in for the process of interest.)

The target in another test is T2, human TLR7 (Homo sapiens, UniProt Q9NYK1).
T2 construct: host or cells: HEK-Blue cells (HEK293-derived reporter line)
T2 sequence (Q9NYK1 27-1049): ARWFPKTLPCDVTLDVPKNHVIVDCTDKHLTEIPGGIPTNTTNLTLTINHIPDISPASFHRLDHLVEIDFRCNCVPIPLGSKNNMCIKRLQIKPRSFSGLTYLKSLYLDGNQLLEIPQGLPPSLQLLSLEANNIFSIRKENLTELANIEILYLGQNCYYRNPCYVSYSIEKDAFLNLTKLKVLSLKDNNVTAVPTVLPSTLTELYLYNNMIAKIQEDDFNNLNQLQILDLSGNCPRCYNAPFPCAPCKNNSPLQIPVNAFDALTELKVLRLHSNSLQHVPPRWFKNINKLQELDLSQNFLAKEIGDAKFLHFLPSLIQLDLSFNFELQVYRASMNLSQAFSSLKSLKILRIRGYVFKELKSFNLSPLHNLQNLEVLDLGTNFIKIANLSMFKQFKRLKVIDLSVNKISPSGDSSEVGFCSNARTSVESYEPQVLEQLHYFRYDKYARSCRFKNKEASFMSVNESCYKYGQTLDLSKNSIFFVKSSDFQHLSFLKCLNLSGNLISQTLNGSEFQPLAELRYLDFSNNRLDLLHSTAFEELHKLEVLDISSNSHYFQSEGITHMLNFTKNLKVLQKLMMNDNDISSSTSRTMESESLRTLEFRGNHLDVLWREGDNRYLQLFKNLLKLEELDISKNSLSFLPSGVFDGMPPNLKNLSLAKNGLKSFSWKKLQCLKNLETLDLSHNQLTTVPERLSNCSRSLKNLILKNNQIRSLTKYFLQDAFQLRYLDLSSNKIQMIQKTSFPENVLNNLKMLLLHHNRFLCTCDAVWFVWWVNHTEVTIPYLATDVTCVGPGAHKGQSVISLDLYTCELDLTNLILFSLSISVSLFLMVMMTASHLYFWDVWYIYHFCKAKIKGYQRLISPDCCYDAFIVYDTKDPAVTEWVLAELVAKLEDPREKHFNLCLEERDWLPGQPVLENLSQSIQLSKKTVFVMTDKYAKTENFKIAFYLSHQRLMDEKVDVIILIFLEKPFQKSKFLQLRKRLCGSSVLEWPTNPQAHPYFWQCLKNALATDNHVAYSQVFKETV
Nature of the test: TLR7/8/9 Inhibition Reporter Assays (TLR7). The conditions noted are these: HEK-Blue cells overexpressing human TLR7, SEAP reporter, stimulated with TLR7 ligand gardiquimod. A digest of the protocol:
as §1

The next test concerns the target T3, human TLR8 (Homo sapiens, UniProt Q9NR97).
T3 construct: host or cells: HEK-Blue cells (HEK293-derived reporter line)
T3 sequence (Q9NR97 27-1041): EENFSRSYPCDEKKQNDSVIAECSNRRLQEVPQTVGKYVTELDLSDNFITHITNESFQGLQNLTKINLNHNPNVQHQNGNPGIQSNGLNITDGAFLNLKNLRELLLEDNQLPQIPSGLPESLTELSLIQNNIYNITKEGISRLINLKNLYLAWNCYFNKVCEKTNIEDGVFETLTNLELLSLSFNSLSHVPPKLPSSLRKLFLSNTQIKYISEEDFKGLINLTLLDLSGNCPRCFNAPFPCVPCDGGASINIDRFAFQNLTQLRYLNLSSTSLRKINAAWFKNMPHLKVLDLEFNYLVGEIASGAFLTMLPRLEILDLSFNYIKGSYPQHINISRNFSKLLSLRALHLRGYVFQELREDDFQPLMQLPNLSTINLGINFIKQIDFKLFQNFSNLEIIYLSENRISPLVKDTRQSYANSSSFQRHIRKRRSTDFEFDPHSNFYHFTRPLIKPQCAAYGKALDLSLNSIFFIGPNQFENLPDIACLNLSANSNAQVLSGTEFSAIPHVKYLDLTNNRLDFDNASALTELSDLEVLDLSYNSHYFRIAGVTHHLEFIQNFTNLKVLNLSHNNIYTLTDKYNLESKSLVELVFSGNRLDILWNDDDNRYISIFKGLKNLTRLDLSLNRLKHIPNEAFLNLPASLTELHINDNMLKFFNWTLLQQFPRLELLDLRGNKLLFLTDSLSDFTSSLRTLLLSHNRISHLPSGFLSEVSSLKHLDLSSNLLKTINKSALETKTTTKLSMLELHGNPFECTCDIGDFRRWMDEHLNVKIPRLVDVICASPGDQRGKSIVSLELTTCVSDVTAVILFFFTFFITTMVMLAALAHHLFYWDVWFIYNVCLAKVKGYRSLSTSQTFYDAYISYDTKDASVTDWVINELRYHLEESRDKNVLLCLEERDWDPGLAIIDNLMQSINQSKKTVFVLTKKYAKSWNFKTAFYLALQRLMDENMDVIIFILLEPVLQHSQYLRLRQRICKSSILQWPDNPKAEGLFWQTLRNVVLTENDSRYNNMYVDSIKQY
Kind of test: TLR7/8/9 Inhibition Reporter Assays (TLR8). The conditions noted are these: HEK-Blue cells overexpressing human TLR8, SEAP reporter, stimulated with TLR8 ligand R848. A digest of the protocol: as §1

SMILES strings stand for the structures. Where only a bound is given, the exact number is not on record here.

With `CC(C)CN1CC2(CCN(c3ccc(-c4cc5c(cn4)nc(-c4ccc(S(C)(=O)=O)cc4)n5C)cc3)C2)C1` [Example 99, 6-(4-(2-isobutyl-2,6-diazaspiro[3.4]octan-6-yl)phenyl)-1-methyl-2-(4-(methylsulfonyl)phenyl)-1H-imidazo[4,5-c]pyridine], the IC50 at human TLR9 worked out at 0.22 µM; against human TLR7, 3.1 µM; at human TLR8, 0.9 µM.

For the compound `COc1ccc(-c2nc3c(C)nc(-c4ccc(N5CC6(CN(CC(C)C)C6)C5)cc4)cc3n2C)cc1OC` [Example 71, 2-(3,4-dimethoxyphenyl)-6-(4-(6-isobutyl-2,6-diazaspiro[3.3]heptan-2-yl)phenyl)-1,4-dimethyl-1H-imidazo[4,5-c]pyridine], the IC50 on human TLR9 came out at 0.13 µM; on human TLR7, 1 µM; at human TLR8 it was 17 µM.

For `CC(C)N1CCC(N2CC=C(c3cc4c(nc(-c5ccc(S(C)(=O)=O)cc5)n4C)c(C(F)(F)F)n3)CC2)CC1` [Example 35, 6-(1-(1-isopropylpiperidin-4-yl)-1,2,3,6-tetrahydropyridin-4-yl)-1-methyl-2-(4-(methylsulfonyl)phenyl)-4-(trifluoromethyl)-1H-imidazo[4,5-c]pyridine], the IC50 is 0.16 µM at human TLR9, 3.3 µM on human TLR7 and greater than 50 µM at human TLR8.

As to `CC(C)CN1CC2(CCN(c3ccc(-c4cc5c(cn4)nc(-c4ccc(S(C)(=O)=O)cc4)n5C4CC4)cc3)CC2)C1` [Example 86, 1-cyclopropyl-6-(4-(2-isobutyl-2,7-diazaspiro[3.5]nonan-7-yl)phenyl)-2-(4-(methylsulfonyl)phenyl)-1H-imidazo[4,5-c]pyridine], the results for the IC50 on human TLR9, against human TLR7 and against human TLR8 were 0.27 µM, 6.7 µM and 3 µM, respectively.

As to `Cc1nc(-c2ccc(N3CCN(C4CCC4)CC3)cc2)cc2c1nc(-c1ccc(S(C)(=O)=O)cc1)n2C` [Example 21, 6-(4-(4-cyclobutylpiperazin-1-yl)phenyl)-1,4-dimethyl-2-(4-(methylsulfonyl)phenyl)-1H-imidazo[4,5-c]pyridine], the IC50 worked out at 0.45 µM against human TLR9, 3 µM at human TLR7 and 3.3 µM on human TLR8.

On to `Cc1nc(-c2ccc(C3CCN(C(C)C)CC3)cc2)cc2c1nc(-c1ccc(S(C)(=O)=O)cc1)n2C` [Example 2, 6-(4-(1-isopropylpiperidin-4-yl)phenyl)-1,4-dimethyl-2-(4-(methylsulfonyl)phenyl)-1H-imidazo[4,5-c]pyridine], for which the values for the IC50 against human TLR9, at human TLR7 and against human TLR8 were 0.3 µM, 12 µM and 36 µM, respectively.

For the compound `Cc1nc(-c2ccc(CN3CCC(N(C)C4CC4)CC3)cc2)cc2c1nc(-c1ccc(S(C)(=O)=O)cc1)n2C` [Example 47, N-cyclopropyl-1-(4-(1,4-dimethyl-2-(4-(methylsulfonyl)phenyl)-1H-imidazo[4,5-c]pyridin-6-yl)benzyl)-N-methylpiperidin-4-amine], the IC50 on human TLR9 was 0.23 µM; on human TLR7, 1.7 µM; against human TLR8 it was 5.5 µM.

On to `COc1ccc(-c2nc3cnc(-c4ccc(N5C[C@H]6CN(CC(C)C)C[C@H]6C5)cc4)cc3n2C2CC2)cc1OC` [Example 82, 1-cyclopropyl-2-(3,4-dimethoxyphenyl)-6-(4-((3aR,6aS)-5-isobutylhexahydropyrrolo[3,4-c]pyrrol-2(1H)-yl)phenyl)-1H-imidazo[4,5-c]pyridine], for which the IC50 worked out at 0.22 µM at human TLR9, 3.8 µM at human TLR7 and 4.2 µM on human TLR8.

With `Cc1nc(-c2ccc(N3CC4(CN(CC(C)C)C4)C3)cc2)cc2c1nc(-c1ccc(S(C)(=O)=O)cc1)n2C` [Example 57, 6-(4-(6-isobutyl-2,6-diazaspiro[3.3]heptan-2-yl)phenyl)-1,4-dimethyl-2-(4-(methylsulfonyl)phenyl)-1H-imidazo[4,5-c]pyridine], the IC50 came out at 0.15 µM against human TLR9, 4 µM on human TLR7 and 4.8 µM at human TLR8.

In the case of `Cc1nc(-c2ccc(N3CCN(CC(C)C)CC3)cc2)cc2c1nc(-c1ccc(S(C)(=O)=O)cc1)n2C` [Example 7, 6-(4-(4-isobutylpiperazin-1-yl)phenyl)-1,4-dimethyl-2-(4-(methylsulfonyl)phenyl)-1H-imidazo[4,5-c]pyridine], the IC50 was 0.24 µM against human TLR9, 7 µM against human TLR7 and greater than 50 µM at human TLR8.

As for `Cc1nc(-c2ccc(C3CCNCC3)cc2)cc2c1nc(-c1ccc(S(C)(=O)=O)cc1)n2C` [Example 27, 1,4-dimethyl-2-(4-(methylsulfonyl)phenyl)-6-(4-(piperidin-4-yl)phenyl)-1H-imidazo[4,5-c]pyridine], the IC50 on human TLR9 was found to be 1.1 µM; on human TLR7, 20 µM; against human TLR8, 46 µM.

The IC50 is the concentration needed to halve the response being measured.
